Source: US12723055B2, “Phosphoantigen prodrug compounds” (priority 2018, dated 2026)

How the values were obtained:
[1] = tested on: T24 urinary bladder carcinoma cell lines; test: Cytotoxicity assay: specific lysis of T24 bladder cancer cells by Vγ9/Vδ2 T-cells; assay type: cell-based, human; conditions: T24 cells incubated 4 hours with 100 pM ProPAgen 4d; effector target ratio 10:1, 18 hours; compared with 10 μM zoledronate and HMBPP
Method: FIG. 13. Cytotoxocity Assay showing potent lysis of bladder cancer cells following incubation with the HMBP phosphonate ProPAgen 4d. ProPAgen 4d mediates the specific lysis of T24 bladder cancer cells by Vγ9/Vδ2 T-cells.
Vγ9Vδ2 T cells were expanded from PBMCs in the presence of 5 μM zoledronate for 14 days and 100 U/ml IL-2 (Peprotech) was added into the media every 2-3 days, yielding ~85% Vγ9Vδ2 T cells. […] All cells were then labelled with eFluor780 viability dye and CFSE^+ eFluor780 viability dye^+ cells were measured using flow cytometry. Data were analysed using FlowJo V10.

human CD8+ T cells = test: Activation of human CD8+ T cells in PBMC (CD69 and CD25 upregulation, flow cytometry); assay type: cell-based; conditions: for Concentration without CD8+ T cell activation relative to Vγ9/Vδ2 T-cell activation EC50: 1 μM versus calculated EC50; for Activation of CD8+ T cells: human PBMC, 20 h, up to 1 μM, CD69/CD25
Method: (§1) FIG. 11. FACS data showing a lack of activation of human CD8+ T cells by the HMBP phosphonate ProPAgen 4d. Human PBMCs were incubated with the indicated concentrations of ProPAgen 4d for 20 h. TCR CD8^+ T cells were then assessed for the upregulation of cell surface markers, CD69 and CD25, as a readout of the activation of CD8^+ T cells. Data was collected and analysed individually from two separate donors: Donor (1) results shown in FIG. 11A, Donor (2) results shown in FIG. 11B.
as §1, with “12.” for “11.”, “9d.” for “4d.”, “9d” for “4d”, “12A,” for “11A,”, “12B.” for “11B.”
Like peripheral blood γδ T-cells, peripheral blood CD8+ T-cells lack appreciable levels of surface CD69 or CD25 under steady state conditions, but upon T-cell receptor (TCR) stimulation upregulate both T-cell activation markers within 72 hours. PAg responsive CD8 T-cells were then distinguished by TCR CD8 expression and assessed for the upregulation CD69 and CD25.
Blood was obtained in the presence of a mixture of Heparin and Ethylenediaminetetraacetic acid (EDTA) as anticoagulants (2 U/ml heparin, 1.5 mM EDTA) from consented healthy donors (approved by the NRES Committee West Midlands ethical board; REC reference 14/WM/1254). Blood was then layered on a density gradient medium, lymphoprep (Stem Cell Technologies) and Peripheral blood mononuclear cells (PBMCs) were purified by gradient centrifugation. The cells were washed 2 times with Phosphate Buffered Saline (PBS), then resuspended in RPMI-1640 media supplemented with 2 mM L-glutamine, 25 mM HEPES, 1% sodium pyruvate, 50 μg/ml penicillin/streptomycin (Invitrogen) and 10% foetal calf serum.
(§2) Untreated and treated PBMCs were labelled with Zombie aqua viability dye (Biolegend) and subsequently were stained with a mixture of BV421-conjugated anti-CD3 (UCHT1, Biolegend), BV650-conjugated anti-CD8 (SK1; BD Bioscience), FITC-conjugated anti-CD25 (M-A25, Biolegend), PE-conjugated anti-CD69 (TP1.55.3; Beckman Coulter) and PE Cy5-conjugated anti-Vγ9 TCR (IMMU360, Beckman Coulter) and APC-conjugated anti-Vδ2 TCR (123R3, Miltenyi Biotech) antibodies. The percentages of CD69^+CD25^+ within CD8^+ T cell subset or Vγ9Vδ2 T-cell population were measured using flow cytometer. Data were analysed using FlowJo V10 software.

human Vγ9/Vδ2+ T cells = test: Activation of human Vγ9/Vδ2+ T cells in PBMC (CD69 and CD25 upregulation, flow cytometry); assay type: cell-based; conditions: for Vγ9/Vδ2 T-cell activation potency (in words): human PBMC from healthy donors, 18-20 h, CD69/CD25, compared with HMBP phosphate ProPAgens or HMBPP; for EC50: human PBMC, 18 hr incubation, CD69 and CD25 upregulation
Method: FIG. 7. Activation of human Vγ9/Vδ2^+ T cells by HMBP phosphonate ProPAgens 4d and 9d. Human peripheral blood mononuclear cells (PBMC) were incubated with the indicated concentrations of ProPAgens 4d (left) and 9d (right) for 18 hr. TCR Vγ9/Vδ2^+ T cells were then assessed for the upregulation of cell surface markers, CD69 and CD25, as a readout to the activation of Vγ9/Vδ2^+ T cells. EC50 for both ProPAgens is ca. 8 pM (picomolar).
FIG. 8. FACS data showing the activation of human Vγ9/Vδ2^+ T cells by the HMBP phosphonate ProPAgen 4d in a dose-dependent manner. Human peripheral blood mononuclear cells (PBMC) were incubated with the indicated concentrations of ProPAgens 4d for 18 h (FIG. 8A) or 20 h (FIGS. 8B and 8C). For 20 h incubations, data was collected and analysed individually from two separate donors: Donor (1) results shown in FIG. 8B, Donor (2) results shown in FIG. 8C. TCR Vγ9/Vδ2^+ T cells were then assessed for the upregulation of cell surface markers, CD69 and CD25, as a readout to the activation of Vγ9/Vδ2^+ T cells.
FIG. 9. FACS data showing the activation of human Vγ9/Vδ2^+ T cells by the HMBP phosphonate ProPAgen 9d in a dose-dependent manner. Human peripheral blood mononuclear cells (PBMC) were incubated with the indicated concentrations of ProPAgens 9d for 18 h (FIG. 9A) or 20 h (FIGS. 9B and 9C). For 20 h incubations, data was collected and analysed individually from two separate donors: Donor (1) results shown in FIG. 9B, Donor (2) results shown in FIG. 9C. TCR Vγ9/Vδ2^+ T cells were then assessed for the upregulation of cell surface markers, CD69 and CD25, as a readout to the activation of Vγ9/Vδ2^+ T cells.
FIG. 10. […] Data was collected and analysed individually from two separate donors: Donor (1) results shown in FIG. 10A, Donor (2) results shown in FIG. 10B. TCR Vγ9/Vδ2^+ T cells were then assessed for the upregulation of cell surface markers, CD69 and CD25, as a readout to the activation of Vγ9/Vδ2^+ T cells.
Peripheral blood γδ T-cells lack appreciable levels of surface CD69 or CD25 under steady state conditions, but upon T-cell receptor (TCR) stimulation upregulate both T-cell activation markers within 72 hours. PAg responsive Vγ9/Vδ2 T-cells were then distinguished by TCR Vγ9 and Vδ2 expression and assessed for the upregulation CD69 and CD25. […]
as §2, with “The percentages of CD69^+CD25^+ within CD8^+ T cell subset or Vγ9Vδ2 T-cell population were measured using flow cytometer.” left out

[2] = Stability in human serum at 37° C. monitored by 31P NMR; assay type: in vitro ADME; conditions: 12 h
Method: FIG. 5: Stability of HMBP phosphonate ProPAgen 4d in human serum at 37° C. for 12 hours as monitored by ^31P NMR. Prodrug 4d (5.0 mg) was dissolved in DMSO-d6 (0.10 mL) and D2O (0.15 mL). All ^31P NMR spectra were recorded at 37° C. Initially, a ^31P NMR scan of prodrug 4d (5.0 mg) in DMSO-d6 (0.10 mL) and D2O (0.15 mL) was recorded (shown as compound 4d alone in the figure). Following this, a previously defrosted human serum (0.30 mL) was added to the NMR tube and a spectrum immediately run. Spectra were recorded at 30 min after the addition and then at even time intervals over 12 hr.
FIG. 6: Stability of HMBP phosphonate ProPAgen 9a in human serum at 37° C. for 12 hours as monitored by ^31P NMR. Same as for compound 4d above. […] In fact, these are eight peaks as predicted and two extra peaks are seen when zoomed into these peaks to make the predicted eight phosphorous peaks of such compounds.
ProPAgen 4d with human serum at 37° C. for 12 h and monitored the sample by ^31P-NMR as reported previously^11.

| Structure (SMILES) | T24 bladder cancer lysis by Vγ9/Vδ2 T-cells [1] | Concentration without CD8+ T cell activation relative to Vγ9/Vδ2 T-cell activation EC50 (human CD8+ T cells) | Activation of CD8+ T cells (human CD8+ T cells) | Vγ9/Vδ2 T-cell activation potency (in words) (human Vγ9/Vδ2+ T cells) | EC50 (human Vγ9/Vδ2+ T cells) | Stability in human serum [2] |
| --- | --- | --- | --- | --- | --- | --- |
| C/C(=C\CCP(=O)(N[C@@H](C)C(=O)OCc1ccccc1)Oc1ccccc1)CO (stereo partly shown) [ProPAgen 4d] | significant enhancement | approx. 100,000 times | did not exhibit activation | potent Vγ9/Vδ2 T-cells activation | ~8 pM | no degradation observed |
| C/C(=C\CC(F)(F)P(=O)(N[C@@H](C)C(=O)OCc1ccccc1)Oc1ccccc1)CO (stereo partly shown) [ProPAgen 9d] |  | approx. 100,000 times | did not exhibit activation | potent Vγ9/Vδ2 T-cells activation | ~8 pM |  |
